Test results as given in ChEMBL document CHEMBL4680132, “Tuning isoform selectivity and bortezomib sensitivity with a new class of alkenyl indene PDI inhibitor” (Eur J Med Chem, 2020).
The source made the active and inactive calls. No cut-off for these calls is given here.

Key:
MM1.S [1] = test: Inhibition of PDI in human bortezomib-resistant MM1.S cells assessed as induction of ATF4 levels at 0.5 uM incubated for 8 hrs by Western blot analysis
MM1.S [2] = test: Inhibition of PDI in human bortezomib-resistant MM1.S cells assessed as induction of CHOP levels at 0.5 uM incubated for 8 hrs by Western blot analysis
MM1.S [3] = test: Inhibition of PDI in human bortezomib-resistant MM1.S cells assessed as induction of Nrf2 levels at 0.5 uM incubated for 8 hrs by Western blot analysis
MM1.S [4] = test: Inhibition of PDI in human bortezomib-resistant MM1.S cells assessed as accumulation of poly-ubiquinated protein at 0.5 uM incubated for 8 hrs by Western blot analysis
[5] = Inhibition of thioredoxin (unknown origin); parameters: species or system Homo sapiens
[6] = target: T1, Protein disulfide-isomerase A6 (Homo sapiens, UniProt Q15084); test: Inhibition of PDIA6 (unknown origin) expressed in Escherichia coli BL21 (DE3) incubated for 1 hr and measured by insulin reduction assay
T1 sequence (Q15084 whole entry): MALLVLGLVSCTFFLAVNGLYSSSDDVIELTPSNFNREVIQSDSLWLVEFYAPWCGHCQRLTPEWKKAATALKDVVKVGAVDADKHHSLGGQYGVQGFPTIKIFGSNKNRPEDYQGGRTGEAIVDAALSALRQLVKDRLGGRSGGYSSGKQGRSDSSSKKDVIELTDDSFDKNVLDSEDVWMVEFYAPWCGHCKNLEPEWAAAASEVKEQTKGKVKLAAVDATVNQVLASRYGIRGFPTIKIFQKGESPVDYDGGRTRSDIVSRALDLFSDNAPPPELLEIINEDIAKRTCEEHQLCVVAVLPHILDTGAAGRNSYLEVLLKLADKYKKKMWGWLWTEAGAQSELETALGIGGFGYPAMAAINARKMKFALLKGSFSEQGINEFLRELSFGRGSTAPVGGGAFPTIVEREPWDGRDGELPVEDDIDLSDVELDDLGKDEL

[7] = Inhibition of PDI (unknown origin) expressed in Escherichia coli BL21 (DE3) incubated for 1 hr and measured by insulin reduction assay; parameters: species or system Homo sapiens
[8] = target: Thioredoxin domain-containing protein 5 (Homo sapiens, UniProt Q8NBS9); test: Inhibition of TXNDC5 (unknown origin)
Sequence of Thioredoxin domain-containing protein 5 (Q8NBS9 whole entry, the tested form may be a part): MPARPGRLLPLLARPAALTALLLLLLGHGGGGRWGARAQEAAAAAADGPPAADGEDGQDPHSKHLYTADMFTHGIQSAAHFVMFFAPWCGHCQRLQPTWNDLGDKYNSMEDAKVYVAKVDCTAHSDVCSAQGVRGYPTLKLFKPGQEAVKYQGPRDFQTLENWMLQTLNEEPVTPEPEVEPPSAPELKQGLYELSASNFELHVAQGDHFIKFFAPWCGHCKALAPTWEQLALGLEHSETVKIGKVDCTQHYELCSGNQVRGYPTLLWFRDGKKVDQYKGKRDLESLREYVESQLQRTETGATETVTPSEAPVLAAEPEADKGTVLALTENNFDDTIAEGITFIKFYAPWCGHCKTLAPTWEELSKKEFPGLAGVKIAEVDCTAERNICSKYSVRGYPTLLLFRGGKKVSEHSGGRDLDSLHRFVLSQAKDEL

[9] = target: T2, Protein disulfide-isomerase A3 (Homo sapiens, UniProt P30101); test: Inhibition of PDIA3 (unknown origin) expressed in Escherichia coli BL21 (DE3) incubated for 1 hr and measured by insulin reduction assay
T2 sequence (P30101 whole entry): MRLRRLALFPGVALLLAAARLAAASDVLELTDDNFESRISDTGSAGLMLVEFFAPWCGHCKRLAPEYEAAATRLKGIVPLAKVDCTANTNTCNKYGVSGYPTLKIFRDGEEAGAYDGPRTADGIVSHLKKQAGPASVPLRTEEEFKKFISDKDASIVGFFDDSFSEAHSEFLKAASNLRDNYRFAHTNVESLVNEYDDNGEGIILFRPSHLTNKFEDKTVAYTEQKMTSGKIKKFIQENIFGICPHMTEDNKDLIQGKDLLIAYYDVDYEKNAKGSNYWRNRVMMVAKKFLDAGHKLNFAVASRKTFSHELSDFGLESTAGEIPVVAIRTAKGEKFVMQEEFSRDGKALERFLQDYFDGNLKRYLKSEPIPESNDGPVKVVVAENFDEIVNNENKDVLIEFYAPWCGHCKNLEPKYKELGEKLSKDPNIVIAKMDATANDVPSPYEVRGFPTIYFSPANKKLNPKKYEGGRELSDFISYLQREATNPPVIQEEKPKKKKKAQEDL

[10] = target: T3, Protein disulfide-isomerase A4 (Homo sapiens, UniProt P13667); test: Inhibition of PDIA4 (unknown origin) expressed in Escherichia coli BL21 (DE3) incubated for 1 hr and measured by insulin reduction assay
T3 sequence (P13667 whole entry): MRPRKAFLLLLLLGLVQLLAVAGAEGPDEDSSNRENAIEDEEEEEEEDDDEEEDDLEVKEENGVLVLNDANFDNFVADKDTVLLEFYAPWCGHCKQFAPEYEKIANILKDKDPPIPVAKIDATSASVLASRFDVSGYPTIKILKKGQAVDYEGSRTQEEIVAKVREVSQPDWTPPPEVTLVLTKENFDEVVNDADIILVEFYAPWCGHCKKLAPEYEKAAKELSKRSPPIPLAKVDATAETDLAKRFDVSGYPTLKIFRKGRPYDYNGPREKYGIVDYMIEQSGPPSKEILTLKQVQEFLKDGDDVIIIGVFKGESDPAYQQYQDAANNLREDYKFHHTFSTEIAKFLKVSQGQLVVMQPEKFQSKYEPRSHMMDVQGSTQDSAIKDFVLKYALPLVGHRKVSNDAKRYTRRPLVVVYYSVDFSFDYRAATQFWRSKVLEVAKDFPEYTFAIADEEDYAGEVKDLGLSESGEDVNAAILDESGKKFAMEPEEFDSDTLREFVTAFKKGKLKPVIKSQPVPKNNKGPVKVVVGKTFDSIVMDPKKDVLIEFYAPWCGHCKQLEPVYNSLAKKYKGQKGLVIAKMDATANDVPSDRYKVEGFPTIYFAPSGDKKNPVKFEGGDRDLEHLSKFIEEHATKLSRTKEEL

Cytochrome P450 3A4 = Cytochrome P450 3A4 (Homo sapiens, UniProt P08684); test: Inhibition of CYP3A4 in human liver microsomes using midazolam as substrate incubated for 30 mins by LC-MS/MS analysis; type: ADME; conditions: 0.5 h
Sequence of Cytochrome P450 3A4 (P08684 whole entry): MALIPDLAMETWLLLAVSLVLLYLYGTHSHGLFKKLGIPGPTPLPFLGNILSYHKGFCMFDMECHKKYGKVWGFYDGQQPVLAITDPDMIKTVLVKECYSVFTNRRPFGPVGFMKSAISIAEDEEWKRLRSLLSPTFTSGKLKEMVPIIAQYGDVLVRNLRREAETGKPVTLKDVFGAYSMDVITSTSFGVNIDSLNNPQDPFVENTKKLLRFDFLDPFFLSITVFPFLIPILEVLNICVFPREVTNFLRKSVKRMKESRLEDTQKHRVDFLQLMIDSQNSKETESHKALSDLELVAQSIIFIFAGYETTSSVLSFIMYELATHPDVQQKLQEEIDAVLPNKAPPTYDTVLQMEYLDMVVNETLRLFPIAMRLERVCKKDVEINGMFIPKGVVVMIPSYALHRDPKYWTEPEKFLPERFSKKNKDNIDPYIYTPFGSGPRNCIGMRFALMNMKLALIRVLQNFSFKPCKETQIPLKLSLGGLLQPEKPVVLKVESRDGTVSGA

IC50 ([5]; read-out: IC50) | IC50 [6] | IC50 [7] | IC50 [8] | IC50 [9] | IC50 [10] | inhibition (INH) (Cytochrome P450 3A4) | IC50 [5] | SMILES | ATF4 induction (activity call) (MM1.S [1]) | CHOP induction (activity call) (MM1.S [2]) | Nrf2 induction (activity call) (MM1.S [3]) | poly-ubiquitinated protein accumulation (qualitative) (MM1.S [4])
 |  |  |  |  |  |  |  | CCCCCC/C=C1\C=C(C(=O)O)c2cc(O)c(O)cc21 | Active | Active | Active | Active
 |  |  |  |  |  |  |  | CCCCCC/C=C1\C=C(C(=O)OCC)c2cc(O)c(O)cc21 | Active | Active | Active | Active
 |  |  |  |  |  |  |  | CCCCCC/C=C1\C=C(C(F)(F)F)c2cc3c(cc21)OCCO3 | Active | Active | Active | Active
 |  |  |  |  |  |  |  | CCCCCC/C=C1\C=C(C(F)(F)F)c2cc(OC)ccc21 | Active | Active | Active | Active
 |  |  |  |  |  |  |  | CCCCCC/C=C1\C=C(C(=O)NC)c2cc(O)c(O)cc21 | Active | Active | Active | Active
30.3 µM | 5.7 µM | 0.6 µM | 12.1 µM | 4.8 µM | 33.1 µM | Not Active |  | CCCCCCCC/C=C1\C=C(C(F)(F)F)c2cc(O)c(O)cc21 | Active | Active | Active | Active
 |  |  |  |  |  |  |  | COc1cc2c(cc1OC)/C(=C/CCCCCCOCc1ccccc1)C=C2C(F)(F)F | Active | Active | Active | Active
 |  |  |  |  |  |  |  | FC(F)(F)C1=C/C(=C/CCCCCCOCc2ccccc2)c2cc3c(cc21)OCO3 | Active | Active | Active | Active
 |  |  |  |  |  |  |  | CCCCCCCC/C=C1/C=C(C(F)(F)F)c2cc(O)c(O)cc21 | Active | Active | Active | Active
 |  |  |  |  |  |  |  | FC(F)(F)C1=C/C(=C\CC2CCCCC2)c2cc3c(cc21)OCO3 | Active | Active | Active | Active
 |  |  |  |  |  |  |  | CCCCCCCC/C=C1\C=C(C(F)(F)F)c2cc(OC)c(OC)cc21 | Active | Active | Active | Active
 |  |  |  |  |  |  |  | CCCCCC/C=C1\C=C(C(F)(F)F)c2cc(O)c(O)cc21 | Active | Active | Active | Active
 | 16.3 µM | 1.12 µM | > 100 µM | 20.8 µM | 61.6 µM |  | Not Active | CCCCCCCC/C=C1/C=C(C(F)(F)F)c2cc(OC)c(OC)cc21 | Active | Active | Active | Active
 |  |  |  |  |  |  |  | FC(F)(F)C1=C/C(=C\CCCCCCOCc2ccccc2)c2cc3c(cc21)OCO3 | Active | Active | Active | Active
 |  |  |  |  |  |  |  | FC(F)(F)C1=C/C(=C\CC2CCCC2)c2cc3c(cc21)OCO3 | Active | Active | Active | Active
 |  |  |  |  |  |  |  | CCCCCC/C=C1/C=C(C(F)(F)F)c2cc(O)c(O)cc21 | Active | Active | Active | Active
 |  |  |  |  |  |  |  | COc1cc2c(cc1OC)/C(=C\CCCCCCOCc1ccccc1)C=C2C(F)(F)F | Active | Active | Active | Active
 | 12 µM | 0.79 µM | > 100 µM | 16.5 µM | > 100 µM | Not Active | Not Active | CCCCCC/C=C1\C=C(C(F)(F)F)c2cc3c(cc21)OCO3 | Active | Active | Active | Active
